What all share (test): DTP human tumour cell line panel, 48 h
Assay [1] has as its system HOP-92 NSCLC.
The test system of assay [2] is SK-OV-3 ovarian.
In assay [3] the test system is HCT-116 colon.
For assay [4], the system named is HT29 colon.
Assay [5] relates to ACHN renal.
Assay [6] concerns HCC-2998 colon.
Assay [7] relates to NCI-H23 lung.
In assay [8] the test system is UO-31 renal.
The test system of assay [9] is NCI-H460 lung.
In assay [10] the test system is OVCAR-4 ovarian.

One may read the GI50 as the concentration giving 50% growth inhibition. As usually defined, the TGI is the concentration giving total growth inhibition. Lower therefore signals more potent growth arrest.

“And” between values parts separate entries of the source, which are not always exact repeats. Identical values can stand only once.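 Results reflect a 48-hour exposure of cells in 96-well plates to compound at five concentrations. GI50 marks 50% less growth. TGI: concentration producing complete growth inhibition.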

`Cc1cnc(NC(=O)Nc2cc(Br)c(C)cc2OC[C@@H]2CNCCO2)cn1`: the GI50 in assay [1] is 0.546 µM and 0.389 µM; in assay [2], 0.916 µM and 0.474 µM; in assay [3] it was 3.09 µM and 3.35 µM; in assay [4], 1.95 µM and 2.59 µM; in [5] it was 0.319 µM and 0.225 µM; in assay [6], 0.468 µM and 0.493 µM. The GI50 is 0.466 µM and 0.548 µM in [7]; 0.483 µM and 1.06 µM in assay [8]; 1.47 µM and 0.928 µM in assay [9]; 5.85 µM and 1.05 µM in [10]. Moreover, the TGI in assay [1] is > 10 µM and 5.72 µM; in [2], > 10 µM and 12.3 µM; in assay [3] it was > 10 µM and 13.3 µM; in assay [4], > 10 µM and 10.1 µM; in [6], > 10 µM and 5.28 µM; in assay [7] it was > 10 µM and 9.42 µM. Moreover, the TGI is > 10 µM and 12 µM in assay [8]; > 10 µM and 5.79 µM in [9]; > 10 µM and 15.5 µM in assay [10].

For the compound `C=C(COC(C)=O)CC(OC(C)=O)c1ccccc1` (configuration not stated), the total growth inhibition concentration (TGI) in assay [1], in [2], in assay [3], in assay [4], in assay [5] and in [6] was greater than 100 µM in each case. The total growth inhibition concentration (TGI) in [7], in assay [8], in assay [9] and in [10] was greater than 100 µM in each case.

For the compound `Cc1ccc(C)c2c1C(O)(C#Cc1ccccc1)c1ccccc1C2(O)C#Cc1ccccc1` (configuration not stated), the GI50 was 2.29 µM in assay [1]; 3.44 µM in [2]; 3.04 µM in [3]; 2.96 µM in assay [4]; 2.84 µM in assay [5]; 5.56 µM in [6]. Besides, the GI50 in assay [7] is 3.23 µM; in assay [8], 1.89 µM; in assay [9], 2.38 µM; in [10], 3.85 µM. Besides, the TGI in assay [1] was greater than 27.3 µM; in assay [2] it was greater than 100 µM; in assay [3], greater than 100 µM; in assay [4] it was greater than 100 µM; in [5], greater than 100 µM; in [6] it was greater than 100 µM. The TGI in assay [7] is greater than 29.5 µM; in [8], 6.83 µM; in assay [9], 12 µM; in [10] it was greater than 100 µM.

For `CN[C@H]1C=C[C@@H]2/C=C(C)/C=C/[C@@H](C)[C@H]([C@H](C)[C@H](O)[C@@H](C)NC(C)=O)OC(=O)/C=C/C=C(C)\C=C\[C@]2(C)C1`, the GI50 in assay [1] was < 0.001 µM and 0.0049 µM; in assay [2], less than 0.001 µM; in assay [3], < 0.001 µM and 0.0049 µM; in assay [4] it was < 0.001 µM and 0.0049 µM; in [5] it was 0.0146 µM; in assay [6], 5.5 µM. Further, the GI50 in [7] was 0.0687 µM and 0.0376 µM; in assay [8], 0.00994 µM; in assay [9] it was 0.0107 µM; in assay [10], 7.12 µM. Moreover, the TGI in [1] is 0.0661 µM and 0.0222 µM; in assay [3], 40.4 µM; in [4] it was greater than 49 µM; in assay [5], greater than 49 µM; in assay [6], greater than 49 µM; in [7], greater than 49 µM. The TGI in assay [8], in assay [9] and in [10] was greater than 49 µM in each case.

As to `CCc1cccc(C)c1NC(=O)c1sc2nc3c(cc2c1N)CCCCC3`, the GI50 is 13.3 µM in assay [1]; 5.24 µM in assay [2]; 3.58 µM in [3]; 3.26 µM in assay [4]; 7.45 µM in assay [5]; 12.4 µM in [6]. Moreover, the GI50 in [7] was 4.67 µM; in assay [8], 6.08 µM; in assay [9] it was 3.52 µM; in [10], 8.37 µM. Moreover, the total growth inhibition concentration (TGI) is 60.3 µM in [1]; greater than 100 µM in assay [2]; greater than 100 µM in assay [3]; 24.7 µM in assay [4]; greater than 100 µM in [5]; 85.8 µM in [6]. Further, the TGI was greater than 100 µM in [7], greater than 100 µM in [8], 26.6 µM in assay [9] and greater than 100 µM in [10].

With `CC(C)CC(NC(=O)c1cccc(O)c1O)C(=O)NCc1cc(CNC(=O)C(CC(C)C)NC(=O)c2cccc(O)c2O)cc(CNC(=O)C(CC(C)C)NC(=O)c2cccc(O)c2O)c1` (configuration not stated), the TGI in [1] was 32 µM; in assay [2], 35.5 µM; in assay [3], 38.4 µM; in [4], 30.9 µM; in [5] it was greater than 100 µM; in [6] it was 20.6 µM. The TGI was 36.1 µM in assay [7], 70.1 µM in [8], greater than 100 µM in assay [9] and 56.5 µM in assay [10].

As to `CN(C)CCCOc1ccc(-c2ccc3ncc4c(c3c2)n(C2CCOCC2)c(=O)n4C)cn1`, the 50% growth inhibitory concentration (GI50) in [1] is 0.218 µM; in assay [2], 0.514 µM; in assay [3], 3.12 µM; in assay [4], 1.95 µM; in assay [5], 2 µM; in assay [6], 2.51 µM. The GI50 in assay [7] was 2.53 µM; in assay [8] it was 0.494 µM; in assay [9], 0.94 µM; in [10], 1.34 µM. Moreover, the TGI in [1] stood at 1.61 µM; in assay [2], 4.19 µM; in [3], 16.6 µM; in assay [4], 13.5 µM; in assay [5] it was 12.6 µM; in [6], 15.6 µM. The total growth inhibition concentration (TGI) in [7] was determined as 22.1 µM; in [8] it was 5.89 µM; in assay [9], 15.5 µM; in assay [10], 11.3 µM.

`CC(C)CCC(=O)c1ccoc1`: the TGI in assay [1], in assay [2], in [3], in [4], in assay [5] and in [6] was greater than 100 µM throughout. The TGI in assay [7], in assay [8], in assay [9] and in assay [10] was greater than 100 µM each time.

For the compound `COC(=O)c1c2c(c[n+]([O-])c1C)C(=O)C=CC2=O`, the GI50 in assay [1] is 2.84 µM; in assay [2], 19.3 µM; in assay [3], 2.19 µM; in assay [4], 4.1 µM; in [5], 1.73 µM; in [6] it was 4.25 µM. The GI50 in assay [7] is 1.88 µM; in [8], 1.52 µM; in assay [9], 12.8 µM; in assay [10], 1.44 µM. In addition, the TGI was 9.06 µM in assay [1]; 51.1 µM in [2]; 5.18 µM in assay [3]; 56.3 µM in assay [4]; 3.22 µM in [5]; 15.5 µM in assay [6]. The TGI in [7] amounted to 4.26 µM; in assay [8] it was 3.03 µM; in assay [9], 28 µM; in [10], 2.83 µM.

Consider `C=C1C(=O)O[C@H]2[C@H]1CC/C(COC(=O)CSCCSCC(=O)OC/C1=C/CC[C@@]3(C)O[C@H]3[C@H]3OC(=O)C(=C)[C@@H]3CC1)=C\CC[C@@]1(C)O[C@@H]21`, for which the GI50 in assay [1] is 1.86 µM; in assay [2], 4.48 µM; in assay [3] it was 1.17 µM; in assay [4], 1.36 µM; in assay [5] it was 1.7 µM; in [6], 1.85 µM. In addition, the GI50 in assay [7] is 2.25 µM; in [8] it was 1.41 µM; in [9] it was 2.28 µM; in assay [10], 2.38 µM. Also, the TGI in [1] is 3.82 µM; in [2], 15.3 µM; in assay [3], 2.64 µM; in [4] it was 2.68 µM; in assay [5], 3.23 µM; in assay [6], 3.52 µM. Besides, the TGI in [7] is 5.38 µM; in assay [8], 2.75 µM; in assay [9], 6.43 µM; in [10], 6.05 µM.

Regarding `COC(=O)CCc1c[nH]c2ccc(N(CCCl)CCCl)cc12`, the GI50 in assay [1] was 2.24 µM; in assay [2], 1.93 µM; in assay [3] it was 2.18 µM; in [4] it was 2.3 µM; in assay [5] it was 0.383 µM; in [6], 8.33 µM. In addition, the GI50 in assay [7] is 1.25 µM; in assay [8], 4.81 µM; in [9], 0.322 µM; in assay [10], 7.71 µM. Further, the TGI was 28.6 µM in [1]; 33.5 µM in assay [2]; greater than 58.9 µM in assay [3]; 44.7 µM in [4]; 27.1 µM in assay [6]; 39.7 µM in [7]. In addition, the figures for the total growth inhibition concentration (TGI) in assay [8], in [9] and in assay [10] were greater than 42.6 µM, 12.9 µM and 52.2 µM, respectively.

On to `COC(=O)[C@@H](C)C[C@H](Cc1ccccc1)NC(=O)c1csc(CC[C@H](C(C)C)N(C)C(=O)[C@@H](NC(=O)[C@H]2CCCCN2C)C(C)C)n1`, for which the GI50 in assay [1] was 0.582 µM; in assay [2], 0.451 µM; in assay [3] it was 0.235 µM; in assay [4], 0.211 µM; in assay [5], 0.324 µM; in assay [6] it was 0.562 µM. Moreover, the GI50 is 0.882 µM in assay [7], 1.66 µM in [8], 0.381 µM in assay [9] and 0.991 µM in assay [10]. The concentration for total growth inhibition (TGI) in [1] was greater than 26.9 µM; in assay [2] it was greater than 33.3 µM; in [3] it was greater than 14.8 µM; in assay [4] it was 6.01 µM; in assay [5], greater than 33.3 µM; in [6], greater than 33.3 µM. For the same compound, the total growth inhibition concentration (TGI) in [7] was greater than 33.3 µM; in assay [8], greater than 33.3 µM; in assay [9], greater than 14.5 µM; in assay [10] it was greater than 33.3 µM.

These data come from PubChem BioAssay (NCI).
